In patent US8546440B2, “Substituted bicyclic imidazole derivatives as gamma secretase modulators” (Janssen Pharmaceuticals, Inc., priority 2008, dated 2013):

Columns and labels:
Type in all cases: cell-based
Aβtotal [1] = experiment: Screening for γ-secretase-modulating activity, Method 1: Aβtotal sandwich ELISA in supernatant of SKNBE2 cells carrying APP 695 wild type (Tables 12a, 12b); conditions: Table 12b, Method 1, SKNBE2 cells carrying APP 695 wild type, cell supernatant ELISA, averaged IC50 values
Protocol: (§1) Screening was carried out using SKNBE2 cells carrying the APP 695—wild type, grown in Dulbecco's Modified Eagle's Medium/Nutrient mixture F-12 (DMEM/NUT-mix F-12) (HAM) provided by Gibco (cat no. 31330-38) containing 5% Serum/Fe supplemented with 1% non-essential amino acids. Cells were grown to near confluency.
(§2) The screening was performed using the assay as described in Citron et al (1997) Nature Medicine 3: 67. Briefly, cells were plated in a 96-well plate at about 10^5 cells/ml one day prior to addition of compounds. Compounds were added to the cells in Ultraculture (Lonza, BE12-725F) supplemented with 1% glutamine (Invitrogen, 25030-024) for 18 hours. The media were assayed by two sandwich ELISAs, for Aβ42 and Aβtotal. Toxicity of the compounds was assayed by WST-1 cell proliferation reagent (Roche, 1 644 807) according to the manufacturer's protocol.
To quantify the amount of Aβtotal in the cell supernatant, samples and standards were added to a 6E10-coated plate. The plate was allowed to incubate overnight at 4° C. in order to allow formation of the antibody-amyloid complex. Following this incubation and subsequent wash steps a selective anti-Aβ-antibody conjugate (biotinylated 4G8) was added and incubated for a minimum of 1 hour in order to allow formation of the antibody-Amyloid-antibody-complex. After incubation and appropriate wash steps, a Streptavidine-Peroxidase-Conjugate was added, followed 30 minutes later by an addition of Quanta Blu fluorogenic peroxidase substrate according to the manufacturer's instructions (Pierce Corp., Rockford, Ill.).
(§3) To obtain the values reported in Table 12a, the sigmoidal dose response curves were analysed by computerised curve-fitting, with percent of inhibition plotted against compound concentration. A 4-parameter equation (model 205) in XLfit was used to determine the IC50. The top and the bottom of the curve were fixed to 100 and 0, respectively, and the hill slope was fixed to 1. The IC50 represents the concentration of a compound that is required for inhibiting a biological effect by 50% (Here, it is the concentration where Aβ peptide level is reduced by 50%).
(§4) To obtain the values reported in Table 12b, the data are calculated as percentage of the maximum amount of amyloid Beta 42 measured in the absence of the test compound. The sigmoidal dose response curves were analyzed using non-linear regression analysis with percentage of the control plotted against the log concentration of the compound. A 4-parameter equation was used to determine the IC50. The values reported in Table 12b are averaged IC50 values.

Aβtotal [2] = experiment: Screening for γ-secretase-modulating activity, Method 2: Aβtotal Alphalisa in supernatant of SKNBE2 cells carrying APP 695 wild type (Table 12c); conditions: Method 2, Table 12c, incubated overnight
Protocol: as §1, with “Invitrogen” for “Gibco”, “10371-029)” for “31330-38)”, “acids, 1-glutamine 2 mM, Hepes 15 mM, penicillin 50 U/ml (units/ml) en streptomycin 50 μg/ml.” for “acids.”
(§5) The screening was performed using a modification of the assay as described in Citron et al (1997) Nature Medicine 3: 67. Briefly, cells were plated in a 384-well plate at 10^4 cells/well in Ultraculture (Lonza, BE12-725F) supplemented with 1% glutamine (Invitrogen, 25030-024), 1% non-essential amino acid (NEAA), penicillin 50 U/ml en streptomycin 50 μg/ml in the presence of test compound at different test concentrations. The cell/compound mixture was incubated overnight at 37° C., 5% CO2, The next day the media were assayed by two sandwich immuno-assays, for Aβ42 and Aβtotal.
(§6) Aβtotal and Aβ42 concentrations were quantified in the cell supernatant using the Aphalisa technology (Perkin Elmer). Alphalisa is a sandwich assay using biotinylated antibody attached to streptavidin coated donorbeads and antibody conjugated to acceptor beads. In the presence of antigen, the beads come into close proximity. The excitation of the donor beads provokes the release of singlet oxygen molecules that trigger a cascade of energy transfer in the acceptor beads, resulting in light emission. To quantify the amount of Aβ42 in the cell supernatant, monoclonal antibody specific to the C-terminus of Aβ42 (JRF/cAβ42/26) was coupled to the receptor beads and biotinylated antibody specific to the N-terminus of Aβ (JRF/AβN/25) was used to react with the donor beads. To quantify the amount of Aβtotal in the cell supernatant, monoclonal antibody specific to the N-terminus of Aβ (JRF/AβN/25) was coupled to the receptor beads and biotinylated antibody specific to the mid region of Aβ (biotinylated 4G8) was used to react with the donor beads.
as §4, with “12c,” for “12b,”, “IC50.” for “IC50. The values reported in Table 12b are averaged IC50 values.”

Aβ42 [3] = experiment: Screening for γ-secretase-modulating activity, Method 2: Aβ42 Alphalisa in supernatant of SKNBE2 cells carrying APP 695 wild type (Table 12c); conditions: Method 2, Table 12c, incubated overnight
Protocol: as §1, with “Invitrogen” for “Gibco”, “10371-029)” for “31330-38)”, “acids, 1-glutamine 2 mM, Hepes 15 mM, penicillin 50 U/ml (units/ml) en streptomycin 50 μg/ml.” for “acids.”
as §5, §6
as §4, with “12c,” for “12b,”, “IC50.” for “IC50. The values reported in Table 12b are averaged IC50 values.”

Aβ42 [4] = experiment: Screening for γ-secretase-modulating activity, Method 1: Aβ42 sandwich ELISA in supernatant of SKNBE2 cells carrying APP 695 wild type (Tables 12a, 12b); conditions: Table 12b, Method 1, SKNBE2 cells carrying APP 695 wild type, cell supernatant ELISA, averaged IC50 values, percentage of control vs log concentration
Protocol: as §1, §2
To quantify the amount of Aβ42 in the cell supernatant, commercially available Enzyme-Linked-Immunosorbent-Assay (ELISA) kits were used (Innotest® β-Amyloid(1-42), Innogenetics N.V., Ghent, Belgium). The Aβ42 ELISA was performed essentially according to the manufacturer's protocol. Briefly, the standards (dilutions of synthetic Aβ1-42) were prepared in polypropylene Eppendorf with final concentrations of 8000 down to 3.9 pg/ml (1/2 dilution step). Samples, standards and blanks (100 μl) were added to the anti-Aβ42-coated plate supplied with the kit (the capture antibody selectively recognizes the C-terminal end of the antigen). The plate was allowed to incubate 3 h at 25° C. in order to allow formation of the antibody-amyloid complex. Following this incubation and subsequent wash steps a selective anti-Aβ-antibody conjugate (biotinylated 3D6) was added and incubated for a minimum of 1 hour in order to allow formation of the antibody-Amyloid-antibody-complex. After incubation and appropriate wash steps, a Streptavidine-Peroxidase-Conjugate was added, followed 30 minutes later by an addition of 3,3′,5,5′-tetramethylbenzidine (TMB)/peroxide mixture, resulting in the conversion of the substrate into a coloured product. This reaction was stopped by the addition of sulfuric acid (0.9 N) and the colour intensity was measured by means of photometry with an ELISA-reader with a 450 nm filter.
as §3, §4

IC50 (Aβtotal [2]) [nM] | IC50 (Aβ42 [3]) [nM] | Compound | other results
> 10000 | 28 | CCOC(=O)c1cn2cc(C(F)(F)F)cc(Nc3ccc(-n4cnc(C)c4)c(OC)c3)c2n1 [Compound 155] | IC50 (Aβtotal [1]): > 3020 nM; IC50 (Aβ42 [4]): 24 nM
> 10000 | 129 | COc1cc(Nc2cccn3cc(C(O)C(F)(F)F)nc23)ccc1-n1cnc(C)c1 (centres unmarked) [Compound 110] | –
> 10000 | 43 | Cc1cn(-c2ccc(Nc3cc(F)cn4cc(-c5ccc(F)cc5C)nc34)cc2F)cn1 [Compound 148] | –
> 10000 | 380 | COc1cc(Nc2nccn3cc(-c4ccc(F)cc4)nc23)ccc1-n1cnc(C)n1 [Compound 178] | –
6610 | 31 | COc1nc(Nc2cc(F)cn3cc(CC(C)C)nc23)ccc1-n1cnc(C)c1 [Compound 142] | –
– | – | COc1cc(Nc2cccn3cc(-c4cc(CN)ccc4C)nc23)ccc1-n1cnc(C)c1 [Compound 107] | IC50 (Aβtotal [2]; Homo sapiens): 2040 nM; IC50 (Aβ42 [3]; Homo sapiens): 48 nM
– | – | COc1cc(Nc2cccn3c(C)c(-c4ccccc4Cl)nc23)ccc1-n1cnc(C)n1 [Compound 124] | IC50 (Aβtotal [1]; Homo sapiens): > 3020 nM; IC50 (Aβtotal [2]; Homo sapiens): 9120 nM; IC50 (Aβ42 [3]; Homo sapiens): 18 nM; IC50 (Aβ42 [4]; Homo sapiens): 11 nM
> 10000 | 1320 | COc1cc(Nc2cccn3cc(C(C)(C)O)nc23)ccc1-n1cnc(C)c1 [Compound 121] | –
> 10000 | 174 | Cc1cn(-c2ccc(Nc3cc(F)cn4cc(C5CCOCC5)nc34)cc2F)cn1 [Compound 149] | IC50 (Aβtotal [1]): > 10000 nM; IC50 (Aβ42 [4]): 389 nM
> 10000 | 107 | COc1c(-c2ccc(F)cc2)nc2c(Nc3ccc(-n4cnc(C)c4)c(F)c3)cccn12 [Compound 112] | –
– | – | Cc1cn(-c2ccc(Nc3cccn4cc(C)nc34)cc2F)cn1 [Compound 119] | IC50 (Aβtotal [1]; Homo sapiens): > 3020 nM; IC50 (Aβtotal [2]; Homo sapiens): 6170 nM; IC50 (Aβ42 [3]; Homo sapiens): 603 nM; IC50 (Aβ42 [4]; Homo sapiens): 1660 nM
> 10000 | 13 | COc1nc(Nc2cccn3c(OC)c(-c4ccc(F)cc4)nc23)ccc1-n1cnc(C)c1 [Compound 141] | –
> 10000 | 5370 | COc1cc(Nc2cccn3cc(C(=O)N(C)C)nc23)ccc1-n1cnc(C)c1 [Compound 123] | –
– | – | CC(=O)N(C)Cc1c(-c2ccccc2Cl)nc2c(Nc3ccc(-n4cnc(C)c4)c(F)c3)cccn12 [Compound 102] | IC50 (Aβtotal [1]; Homo sapiens): > 3020 nM; IC50 (Aβtotal [2]; Homo sapiens): > 10000 nM; IC50 (Aβ42 [3]; Homo sapiens): 14 nM; IC50 (Aβ42 [4]; Homo sapiens): 10 nM
3390 | 60 | COc1nc(Nc2cccn3cc(C4CCOCC4)nc23)ccc1-n1cnc(C)c1 [Compound 143] | –
> 10000 | 62 | COc1cc(Nc2cccn3c(CN(C)C)c(-c4ccccc4)nc23)ccc1-n1cnc(C)n1 [Compound 128] | –
> 10000 | 87 | COc1cc(Nc2cc(C(C)C)nn3cc(C)nc23)ccc1-n1cnc(C)c1 [Compound 160] | –
– | – | COc1nc(Nc2cccn3cc(CC(F)(F)F)nc23)ccc1-n1cnc(C)c1 [Compound 179] | IC50 (Aβtotal [2]; Homo sapiens): > 10000 nM; IC50 (Aβ42 [3]; Homo sapiens): 78 nM

IC50 (Aβtotal [2]) [nM] | IC50 (Aβ42 [3]) [nM] | Compound | other results
– | – | CCC(=O)c1cn2cccc(Nc3ccc(-n4cnc(C)c4)c(OC)c3)c2n1 [Compound 117] | IC50 (Aβtotal [2]; Homo sapiens): > 10000 nM; IC50 (Aβ42 [3]; Homo sapiens): 331 nM
– | – | C=C(C)c1cc(Nc2ccc(-n3cnc(C)c3)c(OC)n2)c2nc(-c3ccccc3Cl)cn2n1 [Compound 171] | IC50 (Aβtotal [2]; Homo sapiens): 8320 nM; IC50 (Aβ42 [3]; Homo sapiens): 537 nM
4070 | 6 | COCc1c(-c2ccccc2Cl)nc2c(Nc3ccc(-n4cnc(C)c4)c(OC)n3)cccn12 [Compound 140] | –
> 10000 | 138 | COc1cc(Nc2cc(Cl)nn3cc(-c4cc(F)ccc4C)nc23)ccc1-n1cnc(C)n1 [Compound 162] | –
> 10000 | 447 | COc1cc(Nc2cc(C3CCOCC3)nn3cc(C)nc23)ccc1-n1cnc(C)c1 [Compound 170] | –
6250 | 562 | COc1nc(Nc2cccn3cc(CC(F)(F)F)nc23)ccc1-n1cnc(C)n1 [Compound 180] | –
> 10000 | 251 | Cc1cn(-c2ccc(Nc3ccnn4cc(-c5cc(F)ccc5C)nc34)cc2F)cn1 [Compound 166] | –
> 10000 | 52 | COc1cc(Nc2cccn3c(CN(C)C)c(-c4ccccc4Cl)nc23)ccc1-n1cnc(C)n1 [Compound 126] | –
> 10000 | 46 | CCCCc1cn2cccc(Nc3ccc(-n4cnc(C)c4)c(OC)c3)c2n1 [Compound 69] | –
– | – | COCCOCCOCC(=O)NCc1ccc(C)c(-c2cn3cccc(Nc4ccc(-n5cnc(C)c5)c(OC)c4)c3n2)c1 [Compound 114] | IC50 (Aβtotal [2]; Homo sapiens): 3630 nM; IC50 (Aβ42 [3]; Homo sapiens): 151 nM
> 10000 | 132 | COc1ccccc1-c1cc(Nc2ccc(-n3cnc(C)c3)c(OC)c2)c2nc(C)cn2n1 [Compound 161] | –
– | – | COc1cc(Nc2ccnn3cc(-c4cc(F)ccc4C)nc23)ccc1-n1cnc(C)c1 [Compound 159] | IC50 (Aβtotal [2]; Homo sapiens): 4790 nM; IC50 (Aβ42 [3]; Homo sapiens): 55 nM
> 10000 | 200 | Cc1cn(-c2ccc(Nc3cc(Cl)cn4cc(C5CCOCC5)nc34)cc2F)cn1 [Compound 150] | –
> 10000 | 178 | COc1cc(Nc2cc(Cl)nn3cc(C)nc23)ccc1-n1cnc(C)c1 [Compound 165] | –
– | – | CCC(=O)NCc1ccc(C)c(-c2cn3cccc(Nc4ccc(-n5cnc(C)c5)c(OC)c4)c3n2)c1 [Compound 111] | IC50 (Aβtotal [2]; Homo sapiens): 5500 nM; IC50 (Aβ42 [3]; Homo sapiens): 65 nM
7940 | 417 | Cc1cn(-c2ccc(Nc3cc(Cl)nn4cc(-c5cc(F)ccc5C)nc34)cc2F)cn1 [Compound 169] | –
4570 | 34 | COc1cc(Nc2cccn3cc(C(=O)OC(C)(C)C)nc23)ccc1-n1cnc(C)c1 [Compound 106] | –
